Measurements from US20100008932A1, “USE OF SOLUBLE CD160 TO SUPPRESS IMMUNITY” (INSERM (Institut National de la Sante et de la Recherche …, priority 2006, published 2010).

Columns and labels:
[1] = system: CD160 cell surface expression on IL-15-activated PB-NK lymphocytes; assay: Inhibition of the GPI-anchored CD160 cleavage: flow cytometry of membrane-bound CD160 on IL-15-activated PB-NK cells; assay type: cell-based, human; settings: 8-12 h after 72 h IL-15, PB-NK cells, anti-CD160 mAb BY55 flow cytometry
Description: The antibodies used in this study were the following: anti-Flag M2 mAb (Sigma, St Quentin Fallavier, France), rabbit anti-GPI-phospholipase D (Caltag laboratories, Burlingame, Calif.), anti-CD56 mAb (Beckman-Coulter, Marseille, France), and anti-CD160 mAb (BY55 (IgM) and CL1-R2 (IgG1), produced locally). Irrelevant isotype-matched antibodies were used as negative controls. FITC- or PE-conjugated goat anti-mouse IgG or IgM (Beckman-Coulter), or coat anti-rabbit IgG (Caltag laboratories) were utilized as secondary reagents. Cells were phenotyped by indirect i munofluorescence. Briefly, the cells were incubated with the specific mAb for 30 min at 4° C., washed twice in PBS, and further incubated with the appropriated FITC- or PE-labeled secondary antibodies. After washing, cells were analyzed by flow cytometry on an EPICS XL apparatus (Beckman-Coulter). For intracellular staining, the cells were permeabilized in saponin buffer (PBS/0.1% BSA/0.1% saponin) (Sigma) prior to staining, and all subsequent steps were performed in saponin buffer, as described above.
The phospholipase inhibitors U73122, U73343 and 1,10 phenanthroline (1,10 PNT) were purchased from Sigma. 3×10^5/ml PB-NK cells were cultured for 72 h in RPMI 1640 supplemented with 10% heat-inactivated human serum, penicillin/streptomycin, L-glutamine and IL-15 (10 ng/ml; PeproTech, Levallois-Perret, France). […]

[2] = system: release of soluble CD160 by IL-15-stimulated PB-NK cells; assay: Anti-CD160 immunoprecipitation and immunoblotting of soluble CD160 in PB-NK cell culture supernatant; assay type: cell-based, human; settings: IL-15-stimulated PB-NK cells cultured in the presence of 1,10-PNT; CL1-R2 immunoprecipitation and Western blot
Procedure: Culture medium (10 ml) from transfected COS7 cells was incubated with 5 μg of anti-Flag M2 mAb for 1 h 30 at 4° C., and immune complexes were collected with 20 μl of Protein G-Sepharose beads. Alternatively, 2×10^7 control or IL-15-activated PB-NK lymphocytes were cultured for 24-48 h in 10 ml of RPMI 1640 medium without serum. Culture supernatants were collected and incubated with CL1-R2 mAb (10 μg per test) followed by protein G-Sepharose beads. After washes, the precipitated proteins were separated by SDS-8% PAGE. The proteins were then transferred onto a nitrocellulose membrane and subjected to Western blot analysis using the anti-CD160 (CL1-R2, 5 μg/ml) or anti-Flag M2 (5 μg/ml) mAb. HRP-conjugated goat anti-mouse antibodies (Jackson Immunoresearch, Westgrove, Pa.) were used as secondary antibodies, and the immunoreactive proteins were visualized using an ECL kit (Amersham Biosciences).

Row | SMILES | effect on IL-15-induced down-modulation of CD160 cell surface expression ([1]; 1,10 PNT 10 μM) | soluble CD160 protein band immunoprecipitated from culture supernatant [2] | effect on IL-15-induced down-modulation of CD160 cell surface expression ([1]; U73122 2 μM)
1 | O.c1cnc2c(c1)ccc1cccnc12 [1,10 PNT, 1,10-phenanthroline monohydrate] | partially impaired | no protein band is immunoprecipitated | –
2 | COc1ccc2c(c1)CC[C@@H]1[C@@H]2CC[C@]2(C)[C@@H](NCCCCCCN3C(=O)C=CC3=O)CC[C@@H]12 [U73122] | – | – | not affected
